Key:
Assay in all cases: KINOMEscan
Type in all cases: binding
[1] = biological target: T1, SGK2 (Homo sapiens, UniProt Q9HBY8)
T1 construct: purchased Eurofins DiscoverX KINOMEscan
In short: (§1)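 Compound and kinase were incubated at room temperature for 1 h, the free kinase fraction was captured with an immobilized affinity ligand, and capture was quantified by quantitative PCR; Kd values used a 12-point half-log series up to 33 μM.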

[2] = biological target: T2, MKNK1 (Homo sapiens, UniProt Q9BUB5)
T2 construct: purchased Eurofins DiscoverX KINOMEscan
In short: as §1

[3] = biological target: T3, TIE2 (Homo sapiens, UniProt Q02763)
T3 construct: purchased Eurofins DiscoverX KINOMEscan
In short: as §1

[4] = biological target: T4, TRKB (Homo sapiens, UniProt Q16620)
T4 construct: purchased Eurofins DiscoverX KINOMEscan
In short: as §1

[5] = biological target: T5, MLK2 (Homo sapiens, UniProt Q02779)
T5 construct: purchased Eurofins DiscoverX KINOMEscan
In short: as §1

[6] = biological target: T6, ULK1 (Homo sapiens, UniProt O75385)
T6 construct: purchased Eurofins DiscoverX KINOMEscan
In short: as §1

[7] = biological target: T7, ASK1 (Homo sapiens, UniProt Q99683)
T7 construct: purchased Eurofins DiscoverX KINOMEscan
In short: as §1

[8] = biological target: T8, HUNK (Homo sapiens, UniProt P57058)
T8 construct: purchased Eurofins DiscoverX KINOMEscan
T8 sequence (P57058 whole entry): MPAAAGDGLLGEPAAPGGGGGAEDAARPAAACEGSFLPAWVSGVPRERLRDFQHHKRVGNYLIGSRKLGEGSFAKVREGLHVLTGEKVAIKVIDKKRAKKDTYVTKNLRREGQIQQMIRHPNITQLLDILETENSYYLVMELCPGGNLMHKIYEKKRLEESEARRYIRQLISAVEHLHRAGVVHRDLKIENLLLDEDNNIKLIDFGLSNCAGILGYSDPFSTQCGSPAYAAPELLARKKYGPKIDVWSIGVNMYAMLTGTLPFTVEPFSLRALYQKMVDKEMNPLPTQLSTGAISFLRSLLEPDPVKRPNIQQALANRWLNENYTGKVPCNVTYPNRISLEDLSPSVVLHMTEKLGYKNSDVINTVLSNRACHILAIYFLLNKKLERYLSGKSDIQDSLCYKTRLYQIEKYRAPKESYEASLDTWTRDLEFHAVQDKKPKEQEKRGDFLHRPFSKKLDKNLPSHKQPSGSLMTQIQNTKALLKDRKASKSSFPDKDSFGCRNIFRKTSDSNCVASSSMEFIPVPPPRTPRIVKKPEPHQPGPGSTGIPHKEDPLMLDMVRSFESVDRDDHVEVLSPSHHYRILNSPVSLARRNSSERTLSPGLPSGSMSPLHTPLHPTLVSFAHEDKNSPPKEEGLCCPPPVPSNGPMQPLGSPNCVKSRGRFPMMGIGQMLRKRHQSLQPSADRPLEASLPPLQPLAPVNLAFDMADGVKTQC
In short: as §1

[9] = biological target: T9, PRKCH (Homo sapiens, UniProt P24723)
T9 construct: purchased Eurofins DiscoverX KINOMEscan
T9 sequence (P24723 whole entry): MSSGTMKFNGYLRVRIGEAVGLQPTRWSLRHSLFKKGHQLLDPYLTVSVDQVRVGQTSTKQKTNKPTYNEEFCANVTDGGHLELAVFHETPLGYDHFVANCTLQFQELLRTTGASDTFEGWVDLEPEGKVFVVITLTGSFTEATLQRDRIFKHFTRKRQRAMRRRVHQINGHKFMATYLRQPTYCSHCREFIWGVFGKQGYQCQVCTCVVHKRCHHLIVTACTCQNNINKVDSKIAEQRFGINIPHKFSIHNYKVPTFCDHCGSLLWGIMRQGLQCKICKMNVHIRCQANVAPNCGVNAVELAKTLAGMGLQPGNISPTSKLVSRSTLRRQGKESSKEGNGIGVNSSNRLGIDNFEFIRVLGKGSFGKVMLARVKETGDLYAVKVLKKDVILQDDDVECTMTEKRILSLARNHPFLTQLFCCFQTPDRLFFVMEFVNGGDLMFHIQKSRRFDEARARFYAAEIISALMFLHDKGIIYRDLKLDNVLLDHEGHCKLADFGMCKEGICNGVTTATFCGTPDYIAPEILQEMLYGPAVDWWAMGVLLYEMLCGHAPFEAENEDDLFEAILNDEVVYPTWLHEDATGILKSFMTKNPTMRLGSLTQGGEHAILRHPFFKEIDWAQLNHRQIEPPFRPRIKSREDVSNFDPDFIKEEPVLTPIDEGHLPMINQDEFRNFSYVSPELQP
In short: as §1

[10] = biological target: T10, TYRO3 (Homo sapiens, UniProt Q06418)
T10 construct: purchased Eurofins DiscoverX KINOMEscan
In short: as §1

[11] = biological target: T11, ROS1 (Homo sapiens, UniProt P08922)
T11 construct: purchased Eurofins DiscoverX KINOMEscan
In short: as §1

[12] = biological target: T12, S6K1 (Homo sapiens, UniProt P23443)
T12 construct: purchased Eurofins DiscoverX KINOMEscan
In short: as §1

[13] = biological target: T13, CDKL5 (Homo sapiens, UniProt O76039)
T13 construct: purchased Eurofins DiscoverX KINOMEscan
In short: as §1

[14] = biological target: T14, ABL2 (Homo sapiens, UniProt P42684)
T14 construct: purchased Eurofins DiscoverX KINOMEscan
In short: as §1

[15] = biological target: T15, GRK2 (Homo sapiens, UniProt P25098)
T15 construct: purchased Eurofins DiscoverX KINOMEscan
In short: as §1

[16] = biological target: T16, STK33 (Homo sapiens, UniProt Q9BYT3)
T16 construct: purchased Eurofins DiscoverX KINOMEscan
In short: as §1

[17] = biological target: T17, ADCK4 (Homo sapiens, UniProt Q96D53)
T17 construct: purchased Eurofins DiscoverX KINOMEscan
T17 sequence (Q96D53 whole entry): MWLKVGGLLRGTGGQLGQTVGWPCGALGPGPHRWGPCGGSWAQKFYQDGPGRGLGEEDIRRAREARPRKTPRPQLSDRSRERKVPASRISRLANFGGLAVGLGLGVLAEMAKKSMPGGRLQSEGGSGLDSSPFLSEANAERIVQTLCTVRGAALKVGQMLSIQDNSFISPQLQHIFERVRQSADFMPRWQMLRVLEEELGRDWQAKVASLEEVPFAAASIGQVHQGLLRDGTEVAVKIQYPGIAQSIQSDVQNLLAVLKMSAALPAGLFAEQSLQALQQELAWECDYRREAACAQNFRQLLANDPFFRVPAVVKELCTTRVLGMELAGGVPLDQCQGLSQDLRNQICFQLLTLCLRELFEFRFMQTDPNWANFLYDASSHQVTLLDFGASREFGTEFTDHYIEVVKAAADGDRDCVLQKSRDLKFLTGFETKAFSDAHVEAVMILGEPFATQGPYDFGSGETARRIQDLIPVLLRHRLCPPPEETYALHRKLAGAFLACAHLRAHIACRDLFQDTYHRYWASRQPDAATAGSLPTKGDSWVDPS
In short: as §1

[18] = biological target: T18, ABL1 (T315I)-non-P (Homo sapiens, UniProt P00519, T315I)
T18 construct: purchased Eurofins DiscoverX KINOMEscan
In short: as §1

[19] = biological target: T19, WNK4 (Homo sapiens, UniProt Q96J92)
T19 construct: purchased Eurofins DiscoverX KINOMEscan
In short: as §1

[20] = biological target: T20, GRK4 (Homo sapiens, UniProt P32298)
T20 construct: purchased Eurofins DiscoverX KINOMEscan
In short: as §1

[21] = biological target: T21, IGF1R (Homo sapiens, UniProt P08069)
T21 construct: purchased Eurofins DiscoverX KINOMEscan
In short: as §1

[22] = biological target: T22, CAMK2A (Homo sapiens, UniProt Q9UQM7)
T22 construct: purchased Eurofins DiscoverX KINOMEscan
In short: as §1

[23] = biological target: T23, PRKCQ (Homo sapiens, UniProt Q04759)
T23 construct: purchased Eurofins DiscoverX KINOMEscan
In short: as §1

[24] = biological target: T24, LKB1 (Homo sapiens, UniProt Q15831)
T24 construct: purchased Eurofins DiscoverX KINOMEscan
In short: as §1

[25] = biological target: T25, ROCK2 (Homo sapiens, UniProt O75116)
T25 construct: purchased Eurofins DiscoverX KINOMEscan
In short: as §1

[26] = biological target: T26, BRAF (Homo sapiens, UniProt P15056)
T26 construct: purchased Eurofins DiscoverX KINOMEscan
In short: as §1

[27] = biological target: T27, LCK (Homo sapiens, UniProt P06239)
T27 construct: purchased Eurofins DiscoverX KINOMEscan
In short: as §1

[28] = biological target: T28, CAMK4 (Homo sapiens, UniProt Q16566)
T28 construct: purchased Eurofins DiscoverX KINOMEscan
In short: as §1

[29] = biological target: T29, EGFR (G719C) (Homo sapiens, UniProt P00533, G719C)
T29 construct: purchased Eurofins DiscoverX KINOMEscan
In short: as §1

[30] = biological target: T30, TLK1 (Homo sapiens, UniProt Q9UKI8)
T30 construct: purchased Eurofins DiscoverX KINOMEscan
In short: as §1

[31] = biological target: T31, MRCKA (Homo sapiens, UniProt Q5VT25)
T31 construct: purchased Eurofins DiscoverX KINOMEscan
In short: as §1

[32] = biological target: T32, ERBB2 (Homo sapiens, UniProt P04626)
T32 construct: purchased Eurofins DiscoverX KINOMEscan
T32 sequence (P04626 23-1255): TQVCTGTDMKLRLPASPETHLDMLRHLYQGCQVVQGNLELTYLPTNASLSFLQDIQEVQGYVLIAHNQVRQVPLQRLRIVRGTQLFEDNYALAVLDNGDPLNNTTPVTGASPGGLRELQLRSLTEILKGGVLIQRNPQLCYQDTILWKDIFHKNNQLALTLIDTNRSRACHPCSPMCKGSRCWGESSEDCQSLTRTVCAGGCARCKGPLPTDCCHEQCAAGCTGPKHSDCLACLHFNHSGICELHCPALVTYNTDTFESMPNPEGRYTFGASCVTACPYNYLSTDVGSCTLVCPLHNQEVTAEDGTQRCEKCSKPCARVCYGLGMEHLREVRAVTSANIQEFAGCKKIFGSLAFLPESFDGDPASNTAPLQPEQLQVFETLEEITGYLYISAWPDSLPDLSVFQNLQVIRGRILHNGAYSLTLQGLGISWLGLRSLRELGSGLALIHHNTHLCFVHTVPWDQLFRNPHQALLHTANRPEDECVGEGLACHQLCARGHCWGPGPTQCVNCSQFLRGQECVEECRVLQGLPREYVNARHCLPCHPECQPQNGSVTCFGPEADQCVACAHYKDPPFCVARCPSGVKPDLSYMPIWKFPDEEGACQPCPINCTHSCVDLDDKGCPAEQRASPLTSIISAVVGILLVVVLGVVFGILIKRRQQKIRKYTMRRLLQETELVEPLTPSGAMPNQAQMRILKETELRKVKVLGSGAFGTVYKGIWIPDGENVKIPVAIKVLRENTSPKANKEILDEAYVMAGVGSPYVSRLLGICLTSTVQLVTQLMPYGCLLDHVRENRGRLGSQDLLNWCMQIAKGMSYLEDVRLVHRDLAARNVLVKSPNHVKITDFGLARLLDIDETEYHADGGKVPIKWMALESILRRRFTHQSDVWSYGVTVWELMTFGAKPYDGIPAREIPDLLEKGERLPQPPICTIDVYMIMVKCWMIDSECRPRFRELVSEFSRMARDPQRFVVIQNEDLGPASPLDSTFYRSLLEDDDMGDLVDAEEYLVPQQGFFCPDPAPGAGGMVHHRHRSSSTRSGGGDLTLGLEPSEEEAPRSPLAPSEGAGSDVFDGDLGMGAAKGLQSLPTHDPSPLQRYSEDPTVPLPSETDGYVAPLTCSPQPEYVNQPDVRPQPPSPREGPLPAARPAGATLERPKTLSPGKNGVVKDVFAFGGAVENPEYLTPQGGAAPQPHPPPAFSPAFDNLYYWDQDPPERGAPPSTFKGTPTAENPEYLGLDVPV
In short: as §1

[33] = biological target: T33, IRAK3 (Homo sapiens, UniProt Q9Y616)
T33 construct: purchased Eurofins DiscoverX KINOMEscan
T33 sequence (Q9Y616 whole entry): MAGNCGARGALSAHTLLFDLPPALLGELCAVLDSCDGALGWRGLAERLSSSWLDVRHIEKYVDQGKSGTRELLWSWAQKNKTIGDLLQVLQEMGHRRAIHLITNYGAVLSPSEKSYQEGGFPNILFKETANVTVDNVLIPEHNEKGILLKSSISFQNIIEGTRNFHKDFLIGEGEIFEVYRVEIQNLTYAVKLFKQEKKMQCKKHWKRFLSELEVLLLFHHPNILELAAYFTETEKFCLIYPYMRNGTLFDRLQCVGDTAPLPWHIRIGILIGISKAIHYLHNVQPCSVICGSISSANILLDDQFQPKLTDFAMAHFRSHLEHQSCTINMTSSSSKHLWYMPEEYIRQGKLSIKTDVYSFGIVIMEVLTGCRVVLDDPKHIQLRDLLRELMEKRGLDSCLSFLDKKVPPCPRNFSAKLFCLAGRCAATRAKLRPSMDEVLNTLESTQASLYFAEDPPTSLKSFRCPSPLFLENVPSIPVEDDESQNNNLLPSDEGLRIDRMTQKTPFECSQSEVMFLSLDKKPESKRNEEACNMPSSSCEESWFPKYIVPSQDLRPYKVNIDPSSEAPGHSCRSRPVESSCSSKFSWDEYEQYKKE
In short: as §1

[34] = biological target: T34, OSR1 (Homo sapiens, UniProt O95747)
T34 construct: purchased Eurofins DiscoverX KINOMEscan
In short: as §1

[35] = biological target: T35, STK35 (Homo sapiens, UniProt Q8TDR2)
T35 construct: purchased Eurofins DiscoverX KINOMEscan
In short: as §1

[36] = biological target: T36, p38-α (Homo sapiens, UniProt Q16539)
T36 construct: purchased Eurofins DiscoverX KINOMEscan
T36 sequence (Q16539 whole entry): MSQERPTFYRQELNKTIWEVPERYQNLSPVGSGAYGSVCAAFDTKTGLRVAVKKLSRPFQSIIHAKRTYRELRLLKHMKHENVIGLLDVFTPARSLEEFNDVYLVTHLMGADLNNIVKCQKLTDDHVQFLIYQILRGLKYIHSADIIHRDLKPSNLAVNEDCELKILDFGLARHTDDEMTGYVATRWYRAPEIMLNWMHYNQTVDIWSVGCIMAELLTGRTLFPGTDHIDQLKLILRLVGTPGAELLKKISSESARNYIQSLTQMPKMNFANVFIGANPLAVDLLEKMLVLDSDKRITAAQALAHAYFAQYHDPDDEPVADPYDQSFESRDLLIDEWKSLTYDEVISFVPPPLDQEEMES
In short: as §1

[37] = biological target: T37, PHKG2 (Homo sapiens, UniProt P15735)
T37 construct: purchased Eurofins DiscoverX KINOMEscan
T37 sequence (P15735 whole entry): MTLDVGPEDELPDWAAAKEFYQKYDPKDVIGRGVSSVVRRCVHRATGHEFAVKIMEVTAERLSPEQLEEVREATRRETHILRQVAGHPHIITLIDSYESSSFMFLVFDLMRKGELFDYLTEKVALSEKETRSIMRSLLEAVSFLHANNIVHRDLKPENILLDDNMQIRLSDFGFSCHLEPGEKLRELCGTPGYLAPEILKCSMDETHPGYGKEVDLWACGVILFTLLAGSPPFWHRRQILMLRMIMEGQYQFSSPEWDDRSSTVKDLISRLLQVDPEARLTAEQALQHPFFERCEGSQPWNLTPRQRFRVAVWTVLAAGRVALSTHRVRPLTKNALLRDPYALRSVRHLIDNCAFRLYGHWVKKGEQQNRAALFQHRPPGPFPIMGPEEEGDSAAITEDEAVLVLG
In short: as §1

[38] = biological target: T38, CAMK1D (Homo sapiens, UniProt Q8IU85)
T38 construct: purchased Eurofins DiscoverX KINOMEscan
In short: as §1

[39] = biological target: T39, SRC (Homo sapiens, UniProt P12931)
T39 construct: purchased Eurofins DiscoverX KINOMEscan
In short: as §1

[40] = biological target: T40, PLK1 (Homo sapiens, UniProt P53350)
T40 construct: purchased Eurofins DiscoverX KINOMEscan
In short: as §1

[41] = biological target: T41, FLT3 (D835H) (Homo sapiens, UniProt P36888, D835H)
T41 construct: purchased Eurofins DiscoverX KINOMEscan
In short: as §1

T1 sequence (Q9HBY8 whole entry): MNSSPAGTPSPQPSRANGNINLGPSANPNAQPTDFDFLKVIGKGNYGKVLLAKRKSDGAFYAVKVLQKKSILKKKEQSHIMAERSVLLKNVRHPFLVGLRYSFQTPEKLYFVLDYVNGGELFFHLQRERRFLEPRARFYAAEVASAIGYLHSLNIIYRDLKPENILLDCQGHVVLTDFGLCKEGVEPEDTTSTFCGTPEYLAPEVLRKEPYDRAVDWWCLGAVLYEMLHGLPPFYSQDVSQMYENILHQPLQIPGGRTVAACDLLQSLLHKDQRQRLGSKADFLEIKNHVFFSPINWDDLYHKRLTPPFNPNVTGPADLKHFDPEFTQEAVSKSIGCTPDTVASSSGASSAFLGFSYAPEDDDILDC

Q: What does the source list for `O=C1Nc2c(cc([N+](=O)[O-])c3c2CCCC3)C1=NO` [Compound 5d, 3-(Hydroxyimino)-5-nitro-1,3,6,7,8,9-hexahydro-2H-benzo[g]indol-2-one]?
A: inhibition at 10 µM [1]: 88%; inhibition at 10 µM [2]: 72%; inhibition at 10 µM [3]: 21%; inhibition at 10 µM [4]: 34%; inhibition at 10 µM [5]: 4%; inhibition at 10 µM [6]: 15%; inhibition at 10 µM [7]: 50%; inhibition at 10 µM [8]: 0%; inhibition at 10 µM [9]: 0%; inhibition at 10 µM [10]: 18%; inhibition at 10 µM [11]: 67%; inhibition at 10 µM [12]: 51%; inhibition at 10 µM [13]: 0%; inhibition at 10 µM [14]: 2%; inhibition at 10 µM [15]: 48%; inhibition at 10 µM [16]: 62%; inhibition at 10 µM [17]: 12%; inhibition at 10 µM [18]: 1%; inhibition at 10 µM [19]: 1%; inhibition at 10 µM [20]: 34%; inhibition at 10 µM [21]: 0%; inhibition at 10 µM [22]: 71%; inhibition at 10 µM [23]: 7%; inhibition at 10 µM [24]: 0%; inhibition at 10 µM [25]: 54%; inhibition at 10 µM [26]: 28%; inhibition at 10 µM [27]: 29%; inhibition at 10 µM [28]: 7%; inhibition at 10 µM [29]: 24%; inhibition at 10 µM [30]: 19%; inhibition at 10 µM [31]: 17%; inhibition at 10 µM [32]: 29%; inhibition at 10 µM [33]: 32%; inhibition at 10 µM [34]: 25%; inhibition at 10 µM [35]: 1%; inhibition at 10 µM [36]: 0%; inhibition at 10 µM [37]: 45%; inhibition at 10 µM [38]: 65%; inhibition at 10 µM [39]: 28%; inhibition at 10 µM [40]: 71%; inhibition at 10 µM [41]: 35%
